PubChem BioAssay (NCI)
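The compound was tested at five concentrations on cells cultured in 96-well plates, with a 48-hour exposure period. At the TGI there is no net growth.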

Legend:
Test in all cases: NCI anticancer screen, dose series, 48 h
786-0 renal = tested on: 786-0 renal
A498 renal = tested on: A498 renal
A549 NSCLC = tested on: A549 NSCLC
ACHN renal = tested on: ACHN renal
BT-549 breast = tested on: BT-549 breast
CAKI-1 renal = tested on: CAKI-1 renal
CCRF-CEM leukemia = tested on: CCRF-CEM leukemia
COLO 205 colon = tested on: COLO 205 colon
DU-145 prostate = tested on: DU-145 prostate
EKVX NSCLC = tested on: EKVX NSCLC
HCC-2998 colon = tested on: HCC-2998 colon
HCT-116 colon = tested on: HCT-116 colon
HCT-15 colon = tested on: HCT-15 colon
HL-60(TB) leukemia = tested on: HL-60(TB) leukemia
HOP-62 NSCLC = tested on: HOP-62 NSCLC
HOP-92 NSCLC = tested on: HOP-92 NSCLC
HT29 colon = tested on: HT29 colon
IGROV1 ovarian = tested on: IGROV1 ovarian
K-562 leukemia = tested on: K-562 leukemia
KM12 colon = tested on: KM12 colon
LOX IMVI melanoma = tested on: LOX IMVI melanoma
M14 melanoma = tested on: M14 melanoma
MALME-3M melanoma = tested on: MALME-3M melanoma
MCF7 breast = tested on: MCF7 breast
MDA-MB-231 breast = tested on: MDA-MB-231 breast
MDA-MB-435 = tested on: MDA-MB-435
MDA-N = tested on: MDA-N
MOLT-4 leukemia = tested on: MOLT-4 leukemia
NCI-H226 lung = tested on: NCI-H226 lung
NCI-H23 lung = tested on: NCI-H23 lung
NCI-H460 lung = tested on: NCI-H460 lung
NCI-H522 lung = tested on: NCI-H522 lung
NCI/ADR-RES ovarian = tested on: NCI/ADR-RES ovarian
OVCAR-3 ovarian = tested on: OVCAR-3 ovarian
OVCAR-4 ovarian = tested on: OVCAR-4 ovarian
OVCAR-5 ovarian = tested on: OVCAR-5 ovarian
OVCAR-8 ovarian = tested on: OVCAR-8 ovarian
PC-3 prostate = tested on: PC-3 prostate
RPMI-8226 leukemia = tested on: RPMI-8226 leukemia
RXF 393 renal = tested on: RXF 393 renal
SF-268 CNS = tested on: SF-268 CNS
SF-295 CNS = tested on: SF-295 CNS
SF-539 CNS = tested on: SF-539 CNS
SK-MEL-2 melanoma = tested on: SK-MEL-2 melanoma
SK-MEL-28 melanoma = tested on: SK-MEL-28 melanoma
SK-OV-3 ovarian = tested on: SK-OV-3 ovarian
SN12C renal = tested on: SN12C renal
SNB-19 CNS = tested on: SNB-19 CNS
SNB-75 CNS = tested on: SNB-75 CNS
SR leukemia = tested on: SR leukemia
SW-620 colon = tested on: SW-620 colon
T-47D breast = tested on: T-47D breast
TK-10 renal = tested on: TK-10 renal
U251 CNS = tested on: U251 CNS
UACC-257 melanoma = tested on: UACC-257 melanoma
UACC-62 melanoma = tested on: UACC-62 melanoma
UO-31 renal = tested on: UO-31 renal
HS 578T breast = tested on: HS 578T breast
SK-MEL-5 melanoma = tested on: SK-MEL-5 melanoma

Compound: Nc1c(C(=O)c2ccc(Cl)cc2)[nH]c(Nc2ccc(Cl)cc2)c1C(=S)Nc1ccccc1
- TGI (786-0 renal): 9.41 µM
- TGI (A498 renal): 28.9 µM
- TGI (A549 NSCLC): 13.9 µM
- TGI (ACHN renal): 5.08 µM
- TGI (BT-549 breast): 8.02 µM
- TGI (CAKI-1 renal): 23.2 µM
- TGI (CCRF-CEM leukemia): > 100 µM
- TGI (COLO 205 colon): 16.5 µM
- TGI (DU-145 prostate): 24.1 µM
- TGI (EKVX NSCLC): 19.5 µM
- TGI (HCC-2998 colon): 7.7 µM
- TGI (HCT-116 colon): 13.4 µM
- TGI (HCT-15 colon): 16.9 µM
- TGI (HL-60(TB) leukemia): > 100 µM
- TGI (HOP-62 NSCLC): 20.5 µM
- TGI (HOP-92 NSCLC): 22.2 µM
- TGI (HT29 colon): 18 µM
- TGI (IGROV1 ovarian): 17.3 µM
- TGI (K-562 leukemia): 17.8 µM
- TGI (KM12 colon): 31.5 µM
- TGI (LOX IMVI melanoma): 16.6 µM
- TGI (M14 melanoma): 34.1 µM
- TGI (MALME-3M melanoma): 36.1 µM
- TGI (MCF7 breast): 21.6 µM
- TGI (MDA-MB-231 breast): 18.1 µM
- TGI (MDA-MB-435): 20 µM
- TGI (MDA-N): 21.5 µM
- TGI (MOLT-4 leukemia): 42.6 µM
- TGI (NCI-H226 lung): 19.4 µM
- TGI (NCI-H23 lung): 11.9 µM
- TGI (NCI-H460 lung): 20.8 µM
- TGI (NCI-H522 lung): 20.3 µM
- TGI (NCI/ADR-RES ovarian): 13.3 µM
- TGI (OVCAR-3 ovarian): 12.9 µM
- TGI (OVCAR-4 ovarian): 5.14 µM
- TGI (OVCAR-5 ovarian): 27.3 µM
- TGI (OVCAR-8 ovarian): 11 µM
- TGI (PC-3 prostate): 41.2 µM
- TGI (RPMI-8226 leukemia): 56.3 µM
- TGI (RXF 393 renal): 7.45 µM
- TGI (SF-268 CNS): 17.8 µM
- TGI (SF-295 CNS): 5.87 µM
- TGI (SF-539 CNS): 18.4 µM
- TGI (SK-MEL-2 melanoma): 25.8 µM
- TGI (SK-MEL-28 melanoma): 14.4 µM
- TGI (SK-OV-3 ovarian): 19.3 µM
- TGI (SN12C renal): 22.5 µM
- TGI (SNB-19 CNS): 21.8 µM
- TGI (SNB-75 CNS): 6.6 µM
- TGI (SR leukemia): 7.41 µM
- TGI (SW-620 colon): 51.9 µM
- TGI (T-47D breast): > 100 µM
- TGI (TK-10 renal): 16.5 µM
- TGI (U251 CNS): 9.73 µM
- TGI (UACC-257 melanoma): 31.8 µM
- TGI (UACC-62 melanoma): 27.1 µM
- TGI (UO-31 renal): 15.1 µM

Compound: COc1ccc(OC)c2sc(N3C(=O)/C(=C/c4ccc(SC)cc4)N=C3c3ccccc3)nc12
- TGI (786-0 renal): > 100 µM
- TGI (A498 renal): > 100 µM
- TGI (A549 NSCLC): 53.9 µM
- TGI (ACHN renal): 86.6 µM
- TGI (BT-549 breast): 88 µM
- TGI (CAKI-1 renal): > 100 µM
- TGI (CCRF-CEM leukemia): 22.2 µM
- TGI (COLO 205 colon): > 100 µM
- TGI (DU-145 prostate): > 100 µM
- TGI (EKVX NSCLC): > 100 µM
- TGI (HCC-2998 colon): > 100 µM
- TGI (HCT-116 colon): 41.3 µM
- TGI (HCT-15 colon): > 100 µM
- TGI (HL-60(TB) leukemia): 64.9 µM
- TGI (HOP-62 NSCLC): 40 µM
- TGI (HOP-92 NSCLC): > 100 µM
- TGI (HS 578T breast): 60.8 µM
- TGI (HT29 colon): 53.3 µM
- TGI (IGROV1 ovarian): > 100 µM
- TGI (K-562 leukemia): > 100 µM
- TGI (KM12 colon): 52.5 µM
- TGI (LOX IMVI melanoma): 64.4 µM
- TGI (M14 melanoma): 46.1 µM
- TGI (MCF7 breast): 48.1 µM
- TGI (MDA-MB-231 breast): > 100 µM
- TGI (MDA-MB-435): 37.6 µM
- TGI (MDA-N): 42.5 µM
- TGI (MOLT-4 leukemia): 80.5 µM
- TGI (NCI-H460 lung): > 100 µM
- TGI (NCI/ADR-RES ovarian): 89.9 µM
- TGI (OVCAR-3 ovarian): 53.6 µM
- TGI (OVCAR-4 ovarian): 87.6 µM
- TGI (OVCAR-5 ovarian): > 100 µM
- TGI (OVCAR-8 ovarian): 92.6 µM
- TGI (PC-3 prostate): 50.6 µM
- TGI (RPMI-8226 leukemia): 63.3 µM
- TGI (SF-268 CNS): 88.1 µM
- TGI (SF-295 CNS): > 100 µM
- TGI (SF-539 CNS): 58.7 µM
- TGI (SK-MEL-2 melanoma): 42.7 µM
- TGI (SK-MEL-28 melanoma): > 100 µM
- TGI (SK-MEL-5 melanoma): 33.8 µM
- TGI (SK-OV-3 ovarian): > 100 µM
- TGI (SN12C renal): 70.2 µM
- TGI (SNB-19 CNS): 68.5 µM
- TGI (SNB-75 CNS): 43.6 µM
- TGI (SR leukemia): 60.6 µM
- TGI (SW-620 colon): > 100 µM
- TGI (T-47D breast): 87 µM
- TGI (TK-10 renal): > 100 µM
- TGI (U251 CNS): 32.3 µM
- TGI (UACC-257 melanoma): > 100 µM
- TGI (UACC-62 melanoma): > 100 µM
- TGI (UO-31 renal): 63.7 µM
